{"source": "patent US20160235677A1", "about": "“METHOD OF CONVERTING A CRYSTALLINE COMPOUND TO AN AMORPHOUS COMPOUND, METHOD OF INCREASING THE SOLUBILITY OF A CRYSTALLINE COMPOUND IN A BIORELEVANT FLUID, AND NANOPARTICLES THAT ACHIEVE SUPERSATURATION” (Nanocopoeia, LLC., priority 2014, published 2016)", "key": {"[1]": {"test_system": "Caco-2 monolayers", "assay": "Caco-2 Monolayer Test Method", "assay_type": "in vitro ADME", "settings": "Caco-2, FIGS. 8A and 8B, result in words", "experimental": "Caco-2 monolayers are prepared in Millipore 96-cell Caco-2 plates and are used after a 3-week differentiation period. The monolayers separate the apical, or donor well, from the basolateral, or recipient well. The buffer used for the apical side is 1.98 g/L glucose in 10 mM HEPES, Hank's Balanced Salt Solution (HBSS) lx, with calcium, magnesium, without phenol red (HyClone, Logan, Utah) pH 7.4. The impermeable dye Lucifer yellow (in an amount of 100 μM) is added to test monolayer integrity. The basolateral side buffer is buffer, pH 7.4, without dye. […] The amount of test powder is selected to assure that if the powder was completely dissolved, the amount is sufficient to achieve ˜12 to 13 times the saturation concentration of the compound of interest previously measured in HBSS (15 μg/mL), in other words, a supersaturated solution. […] Where the compound of interest is not a substrate for p-glycoprotein (pGP), B→A efflux is not measured.\nBuffer test samples are added to apical wells at 1 h after preparation and buffer alone is added to the basolateral side. […] The plates are assumed to be intact if there is no increase in fluorescence from leaking Lucifer yellow dye from the apical side. Individual cell monolayers are assumed intact if there is no increase in fluorescence in aliquots taken from the basolateral wells. […]"}, "[2]": {"assay": "Differential Scanning Calorimetry (DSC) crystallinity / physical state", "assay_type": "physicochemical", "settings": "griseofulvin formulations"}, "[3]": {"assay": "XRD and DSC determinations of physical state of ENS-processed powders (Table B)", "assay_type": "physicochemical", "experimental": "Thermal analysis is conducted using a TA Instruments Model Q200 DSC (New Castle, Del.) equipped with an RCS-90 refrigerated cooling system. Samples, in an amount of 3.5 mg±1.0 mg, are weighed into TA Instruments T-Zero aluminum pans and closed with lids. […] Nitrogen is used as the purge gas at a flow rate of 50 mL/min. All data analyses are performed using TA Universal Analysis 2000 software (TA Instruments, New Castle, Del.). T-Zero cell constant and temperature/enthalpy calibrations are conducted with the use of sapphire and indium standards, respectively.\nX-ray powder diffraction is performed at room temperature using a Bruker D8 Discover using a Cu Kα radiation, point source filtered with a graphite monochromator and a Bruker Hi-Star two-dimensional x-ray detector (Bruker, Karlsruhe, Germany). Powder samples are pressed onto a sample holder made of single-crystal quartz cut off-axis. The reflected intensity is collected at 0.04° resolution from 2Θ=2° to 62° with an acquisition time of 20 minutes. Data analysis is performed using the JADE 8.0 software package (Materials Data Inc., Livermore, Calif.) with whole pattern fitting. The test method has a detection limit of 2% crystallinity.\nA series of crystalline drug and polymer combinations were dissolved in solvents in the amounts and at the ratios set forth in Table B. The solutions were then sprayed using the ENS system described above. The resulting dry compounds were collected and analyzed according to the XRD, DSC and SEM test methods."}, "[4]": {"assay": "Dissolution in Buffer Media with pH Transition (itraconazole)", "assay_type": "physicochemical", "experimental": "(§1) Dissolution testing, based on pH change from acidic-to-neutral media, is performed according to USP 29 Apparatus 2 Guidelines (United States Pharmacopeial Convention. Chapter <711> Dissolution, Stage 6 Harmonization, Official Dec. 1, 2011. USP website: http://www.usp.org/sites/default/files/usp_pdf/EN/USPNF/2011-02-25711DISSOLUTION.pdf).\nWhere specified below, the USP method was modified to use smaller 100 mL glass vessels with matching sized paddles operated at a speed of 100 rpm in buffer media using a VanKel 7000 Dissolution Tester (VanKel Technology Group, Gary, N.C.).\nExamples A2, A3, A5 and A6 and Controls A1-A6 were tested according to the Dissolution in Buffer Media with pH Transition Test method. […] The solution was left stirring for 120 minutes, after which 3 mL aliquots were drawn from each vessel. Immediately after the aliquots were removed from the vessels, 25 mL of 0.2 M tribasic sodium phosphate buffer was added to each vessel to produce in a dissolution media having a pH 6.8±0.05. Subsequently, 3 mL aliquots were drawn from each vessel after 135 min, 150 min, 180 min, 210 min, 240 min, and 300 min. The aliquots were then analyzed to determine the concentration of itraconazole present in the media. The results were recorded in μg/mL.\nSince only one sample was collected before the pH transition, the AUC, Tmax and Cmax were calculated based on the results following pH transition."}, "[5]": {"assay": "Dissolution in Biorelevant Media with pH Transition (itraconazole, FaSSGF to FaSSIF)", "assay_type": "physicochemical", "experimental": "as §1\nWhere specified below, the USP method was modified to use smaller 100 mL glass vessels with matching sized paddles operated at a […] speed of 100 rpm in biorelevant media using a VanKel 7000 Dissolution Tester (VanKel Technology Group, Gary, N.C.).\nBiorelevant media is prepared using FaSSIF, FeSSIF & FaSSGF Powder (biorelevant.com) a commercial source of sodium taurocholate and lecithin, hereafter abbreviated “SIF Powder.” Fasted state simulated gastric fluid (FaSSGF) and Fasted state simulated intestinal fluid (FaSSIF) are prepared using the formula provided by the vendor at http://biorelevant.com/fassif-fessif-fassgf-dissolution-media/fasted-fed-state-simulated-intestinal-gastric-fluid/how-to-make/, after specifying the desired volume quantity of medium to be prepared. For example, for 500 mL of FaSSGF, the test medium contains sodium chloride, 1 g, and SIF Powder, 30 mg. Solids are dissolved in approximately 480 mL deionized water. The FaSSGF solution is adjusted to a final pH of 1.6 using concentrated hydrochloric acid, and brought to a final volume of 500 mL by adding deionized water.\nFor two-stage dissolution testing, which consists of a gastric stage followed by an intestinal phase, the compound of interest is first added to a volume of FaSSGF that is equivalent to ¾ of the final test volume. For example, if the test vessel is 100 mL, the volume of FaSSGF is 75 mL. After allowing dissolution to proceed for 2 hours or another specified time interval, 25 mL of a Transition Medium is added to create a final volume of 100 mL in this example, with a final pH of 6.5. The final medium is equivalent in composition to FaSSIF, as per the formula provided at the above link at biorelevant.com.\nThe Transition Medium is prepared first by making Transition Buffer, 500 mL, which contains sodium chloride, 9.37 g, sodium hydroxide, 2.5 g, sodium phosphate monobasic dihydrate, 8.94 g. […] Larger quantities are prepared as required, maintaining the relative amounts each of Transition Buffer and SIF Powder.\nThe dissolution test is performed by weighing the test formulation containing the test compound, adjusting weights to achieve an equivalent amount of test compound across the various test formulations. […] Starting time for the dissolution test is recorded with the addition of the first drop. […]"}, "[6]": {"assay": "Equilibrium / saturation solubility in test media", "assay_type": "physicochemical", "settings": "ITZ, experimentally determined"}, "[7]": {"settings": "itraconazole, cited from earlier work"}, "[8]": {"settings": "itraconazole; cited from earlier work"}, "[9]": {"settings": "oral, taken immediately after a full meal or with an acidic beverage; cited from earlier work"}, "[10]": {"settings": "itraconazole, assumed value; cited from earlier work"}, "[11]": {"settings": "after pH transition to FaSSIF pH 6.5±0.05"}}, "note": "Structures can show the parent of a compound that is named as a salt. Where two headings read alike, the source gives them in different places.", "data": [{"smiles": "COC1=CC(=O)C[C@@H](C)[C@]12Oc1c(Cl)c(OC)cc(OC)c1C2=O", "note": "[Control 3, griseofulvin]", "values": [{"measurement": "initial concentration and flux compared with unprocessed GF powder", "setting": "[1]", "result": "performed similarly to unprocessed GF powder"}, {"measurement": "calculated levels of crystallinity based on DSC", "setting": "[2]", "result": 100, "unit": "%"}]}, {"smiles": "O=C(O)Cc1ccccc1Nc1c(Cl)cccc1Cl", "note": "[Diclofenac]", "values": [{"measurement": "XRD and DSC determinations of physical state (amorphous or crystalline)", "setting": "[3]", "result": "XRD and DSC consistent with crystalline"}]}, {"smiles": "CCC(C)n1ncn(-c2ccc(N3CCN(c4ccc(OCC5COC(Cn6cncn6)(c6ccc(Cl)cc6Cl)O5)cc4)CC3)cc2)c1=O", "note": "(stereo not drawn) [Control A1, Itraconazole]", "values": [{"measurement": "Neutral Phase Tmax", "setting": "[4]; buffer, after pH transition to 6.8±0.05", "result": 3.50, "unit": "h"}, {"measurement": "Neutral Phase AUC (SD) (μg · hr/mL)", "setting": "[4]; buffer, after pH transition to 6.8±0.05, up to 300 min", "result": "0.218 (0.078) μg · hr/mL"}, {"measurement": "Neutral Phase Cmax", "setting": "[4]; buffer, after pH transition to 6.8±0.05 with 0.2 M tribasic sodium phosphate", "result": 61, "unit": "ng/mL"}, {"measurement": "Acid Phase C120", "setting": "[4]; itraconazole concentration at 120 minutes in 75 mL 0.1 N HCl pH 1, 6 mg itraconazole equivalent", "result": 1.50, "unit": "µg/mL"}, {"measurement": "Neutral Phase AUC (SD) (μg · hr/mL)", "setting": "[5]; [11]", "result": "0.75 (0.221) μg · hr/mL"}, {"measurement": "Neutral Phase Cmax", "setting": "[5]; [11]", "result": 291, "unit": "ng/mL"}, {"measurement": "Neutral Phase Tmax", "setting": "[5]; [11]", "result": 2.25, "unit": "h"}, {"measurement": "Acid Phase C120", "setting": "[5]; itraconazole concentration at 120 minutes in 75 mL FaSSGF, 6 mg itraconazole equivalent", "result": 0.112, "unit": "µg/mL"}, {"measurement": "solubility in FaSSIF medium", "setting": "[6]", "result": 0.08, "unit": "µg/mL"}, {"measurement": "reported aqueous solubility", "setting": "[7]; acidic media", "result": 4, "unit": "µg/mL"}, {"measurement": "reported aqueous solubility", "setting": "[7]; neutral pH", "result": 0.001, "unit": "µg/mL"}, {"measurement": "log P", "setting": "[8]", "result": 6.2}, {"measurement": "pKa", "setting": "[8]", "result": 3.7}, {"measurement": "maximum absorption", "setting": "[9]", "result": 55, "unit": "%"}, {"measurement": "assumed solubility in 0.1 N HCl", "setting": "[10]", "result": 4, "unit": "µg/mL"}]}, {"smiles": "C[C@@H](O[C@H]1OCCN(Cc2n[nH]c(=O)[nH]2)[C@H]1c1ccc(F)cc1)c1cc(C(F)(F)F)cc(C(F)(F)F)c1", "note": "[Aprepitant]", "values": [{"measurement": "XRD and DSC determinations of physical state (amorphous or crystalline)", "setting": "[3]", "result": "mainly amorphous material."}]}, {"smiles": "CN1CC2c3ccccc3Oc3ccc(Cl)cc3C2C1", "note": "(stereo not drawn) [Asenapine Maleate]", "values": [{"measurement": "XRD and DSC determinations of physical state (amorphous or crystalline)", "setting": "[3]", "result": "with largely amorphous material."}]}, {"smiles": "COc1ccc2c(c1)c(CC(=O)O)c(C)n2C(=O)c1ccc(Cl)cc1", "note": "[Indomethacin]", "values": [{"measurement": "XRD and DSC determinations of physical state (amorphous or crystalline)", "setting": "[3]", "result": "with mainly amorphous material."}]}]}
